Experimental data as given in patent publication US12441768B2, “Compositions and methods for treating endometriosis” (EndoMet Biosciences, Inc., priority 2018, dated 2025).
Where a SMILES comes first, the peptide text is derived from it.

Legend:
[1] = molecular target: Wnt-responsive promoter (TCF/LEF); experiment: Wnt-dependent luciferase reporter assay; assay type: cell-based, murine
In short: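 Murine 3T3 fibroblasts carrying a TCF/LEF-driven luciferase reporter, stimulated with Wnt3a in the presence of increasing peptide concentrations or vehicle. Luminescence inhibition gave EC50 values in uM.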

β-catenin = molecular target: T1, β-catenin (Homo sapiens, UniProt P35222); experiment: KD50 measurement using competitive fluorescence polarization (FP) with labelled TCF4; assay type: binding; conditions: fluorescence polarization, β-catenin; for Kd: read-out: β-Cat FP KD
T1 sequence (P35222 1-781): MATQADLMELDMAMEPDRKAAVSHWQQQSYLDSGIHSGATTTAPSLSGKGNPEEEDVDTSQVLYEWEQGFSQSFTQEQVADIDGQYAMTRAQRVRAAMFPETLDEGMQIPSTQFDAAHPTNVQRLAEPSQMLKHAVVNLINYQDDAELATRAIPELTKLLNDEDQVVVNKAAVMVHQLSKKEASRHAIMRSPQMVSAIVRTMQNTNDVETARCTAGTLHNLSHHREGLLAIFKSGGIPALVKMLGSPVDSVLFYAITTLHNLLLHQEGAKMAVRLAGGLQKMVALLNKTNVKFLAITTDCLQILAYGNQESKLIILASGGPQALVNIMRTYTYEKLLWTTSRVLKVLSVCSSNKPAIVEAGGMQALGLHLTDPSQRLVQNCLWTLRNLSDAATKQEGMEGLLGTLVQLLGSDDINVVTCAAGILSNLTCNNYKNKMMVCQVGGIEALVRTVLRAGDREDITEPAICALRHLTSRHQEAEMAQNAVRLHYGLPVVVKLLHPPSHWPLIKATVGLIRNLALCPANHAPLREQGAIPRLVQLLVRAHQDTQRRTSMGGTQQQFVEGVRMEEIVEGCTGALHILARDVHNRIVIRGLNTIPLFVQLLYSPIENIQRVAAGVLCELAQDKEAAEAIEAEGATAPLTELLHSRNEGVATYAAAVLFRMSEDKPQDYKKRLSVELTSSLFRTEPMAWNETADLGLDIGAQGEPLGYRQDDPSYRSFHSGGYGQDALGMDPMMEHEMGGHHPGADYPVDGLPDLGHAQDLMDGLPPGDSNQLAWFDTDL
In short: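 5 nM labelled TCF4 was combined with 100 nM β-catenin at room temperature, then inhibitor was titrated in serial dilutions from 10 nM to 30 uM. Polarization was read at excitation 470 nm, emission 520 nm; displacement lowers the signal. Three independent experiments.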

[2] = % Viability non-Wnt responsive cells

EC50 [1]	Kd (β-catenin)	β-Cat FP Hill slope (β-catenin)	SMILES	viability [2]
15 to 22.5 µM	> 30 µM		CC[C@H](C)[C@H](NC(=O)[C@H](CC(C)C)NC(=O)[C@H](Cc1ccccc1)NC(=O)[C@H](Cc1c[nH]c2ccccc12)NC(=O)[C@@H](N)CCSC)C(=O)N[C@@H](CS)C(=O)N[C@@H](Cc1ccccc1)C(=O)N[C@@H](Cc1c[nH]c2ccccc12)C(=O)NCC(=O)O [compound 154] (H-MWFLICFWG-OH)	103%
> 30 µM	> 30 µM		CC[C@H](C)[C@H](NC(=O)[C@H](CC(C)C)NC(=O)[C@@H](NC(=O)[C@H](Cc1c[nH]c2ccccc12)NC(=O)[C@@H](N)CCSC)[C@@H](C)CC)C(=O)N[C@@H](CO)C(=O)N[C@@H](Cc1ccccc1)C(=O)N[C@@H](Cc1c[nH]c2ccccc12)C(=O)NCC(=O)O [compound 155] (H-MWILISFWG-OH)	97%
< 7.5 µM	> 30 µM		CC[C@H](C)[C@H](NC(=O)[C@H](CC(C)C)NC(=O)[C@H](C)NC(=O)[C@H](Cc1c[nH]c2ccccc12)NC(=O)[C@@H](N)CCSC)C(=O)N[C@@H](CO)C(=O)N[C@@H](Cc1ccccc1)C(=O)N[C@@H](Cc1c[nH]c2ccccc12)C(=O)NCC(=O)O [compound 156] (H-MWALISFWG-OH)	102%
< 7.5 µM	> 30 µM		CC[C@H](C)[C@H](NC(=O)[C@H](C)NC(=O)[C@H](Cc1ccccc1)NC(=O)[C@H](Cc1c[nH]c2ccccc12)NC(=O)[C@@H](N)CCSC)C(=O)N[C@@H](CO)C(=O)N[C@@H](Cc1ccccc1)C(=O)N[C@@H](Cc1c[nH]c2ccccc12)C(=O)NCC(=O)O [compound 157] (H-MWFAISFWG-OH)	99.9%
7.5 to 15 µM	> 30 µM		CSCC[C@H](N)C(=O)N[C@@H](Cc1c[nH]c2ccccc12)C(=O)N[C@@H](Cc1ccccc1)C(=O)N[C@@H](CC(C)C)C(=O)N[C@@H](C)C(=O)N[C@@H](CO)C(=O)N[C@@H](Cc1ccccc1)C(=O)N[C@@H](Cc1c[nH]c2ccccc12)C(=O)NCC(=O)O [compound 158] (H-MWFLASFWG-OH)	95.6%
< 7.5 µM	> 30 µM		CC[C@H](C)[C@H](NC(=O)[C@H](CC(C)C)NC(=O)[C@H](Cc1ccccc1)NC(=O)[C@H](Cc1c[nH]c2ccccc12)NC(=O)[C@@H](N)CCSC)C(=O)N[C@@H](C)C(=O)N[C@@H](Cc1ccccc1)C(=O)N[C@@H](Cc1c[nH]c2ccccc12)C(=O)NCC(=O)O [compound 159] (H-MWFLIAFWG-OH)	107%
< 7.5 µM	> 30 µM		CC[C@H](C)[C@H](NC(=O)[C@H](CC(C)C)NC(=O)[C@H](Cc1ccccc1)NC(=O)[C@H](Cc1c[nH]c2ccccc12)NC(=O)[C@@H](N)CCSC)C(=O)N[C@@H](CO)C(=O)N[C@@H](C)C(=O)N[C@@H](Cc1c[nH]c2ccccc12)C(=O)NCC(=O)O [compound 160] (H-MWFLISAWG-OH)	102%
15 to 22.5 µM	> 30 µM		CC[C@H](C)[C@H](NC(=O)[C@H](CC(C)C)NC(=O)[C@H](Cc1ccccc1)NC(=O)[C@H](Cc1c[nH]c2ccccc12)NC(=O)[C@@H](N)CCSC)C(=O)N[C@@H](CO)C(=O)N[C@@H](Cc1ccccc1)C(=O)N[C@@H](C)C(=O)NCC(=O)O [compound 161] (H-MWFLISFAG-OH)	103%
7.5 to 15 µM	> 30 µM		CC[C@H](C)[C@H](NC(=O)[C@H](CC(C)C)NC(=O)[C@H](Cc1ccccc1)NC(=O)[C@H](Cc1c[nH]c2ccccc12)NC(=O)[C@@H](N)CCSC)C(=O)N[C@@H](CO)C(=O)N[C@@H](Cc1ccccc1)C(=O)N[C@@H](Cc1c[nH]c2ccccc12)C(=O)N[C@@H](C)C(=O)O [compound 162] (H-MWFLISFWA-OH)	104%
< 7.5 µM	> 30 µM		CC[C@H](C)[C@H](NC(=O)[C@H](CC(C)C)NC(=O)[C@H](Cc1ccccc1)NC(=O)[C@H](Cc1c[nH]c2ccccc12)NC(=O)[C@@H](N)CCSC)C(=O)N[C@@H](Cc1c[nH]cn1)C(=O)N[C@@H](Cc1ccccc1)C(=O)N[C@@H](Cc1c[nH]c2ccccc12)C(=O)NCC(=O)O [compound 163] (H-MWFLIHFWG-OH)	100%
< 7.5 µM	0.4 to 1 µM	0.7	CCCC[C@H](N)C(=O)N[C@@H](Cc1c[nH]c2ccccc12)C(=O)N[C@@H](Cc1ccccc1)C(=O)N[C@@H](CC(C)C)C(=O)N[C@H](C(=O)N[C@@H](CS)C(=O)N[C@@H](Cc1ccccc1)C(=O)N[C@@H](Cc1c[nH]c2ccccc12)C(=O)NCC(=O)O)[C@@H](C)CC [compound 164] (HELM PEPTIDE1{[Nle].W.F.L.I.C.F.W.G}$$$$V2.0)	100%
< 7.5 µM	< 0.4 µM	2.99	CC[C@H](C)[C@H](NC(=O)[C@H](CC(C)C)NC(=O)[C@@H](NC(=O)[C@H](Cc1c[nH]c2ccccc12)NC(=O)[C@H](CCSC)NC(C)=O)[C@@H](C)CC)C(=O)N[C@@H](CO)C(=O)N[C@@H](Cc1ccccc1)C(=O)N[C@@H](Cc1c[nH]c2ccccc12)C(=O)NCC(=O)O [compound 165] (Ac-MWILISFWG-OH)	102%
> 30 µM	> 30 µM		CC[C@H](C)[C@H](NC(=O)[C@H](CC(C)C)NC(=O)[C@H](Cc1ccccc1)NC(=O)[C@H](Cc1c[nH]c2ccccc12)NC(=O)[C@H](CCSC)NC(=O)[C@H](CCCNC(=N)N)NC(=O)[C@@H](NC(=O)[C@@H](N)CCSC)[C@@H](C)CC)C(=O)N[C@@H](CS)C(=O)N[C@@H](C)C(=O)N[C@@H](Cc1c[nH]c2ccccc12)C(=O)NCC(=O)O [compound 166] (H-MIRMWFLICAWG-OH)	100%
7.5 to 15 µM	1 to 10 µM	0.7	CC[C@H](C)[C@@H]1NC(=O)[C@H](CC(C)C)NC(=O)[C@H](Cc2ccccc2)NC(=O)[C@H](Cc2c[nH]c3ccccc23)NC(=O)[C@H](CCSC)NC(=O)[C@@H](N)CCCCNC(=O)C[C@@H](C(=O)O)NC(=O)[C@H](Cc2c[nH]c3ccccc23)NC(=O)[C@H](C)NC(=O)[C@H](CS)NC1=O [compound 167] (HELM PEPTIDE1{K.M.W.F.L.I.C.A.W.D}$PEPTIDE1,PEPTIDE1,1:R3-10:R3$$$V2.0)	98.8%
< 7.5 µM	1 to 10 µM	0.7	CC[C@H](C)[C@@H]1NC(=O)[C@H](CC(C)C)NC(=O)[C@H](Cc2ccccc2)NC(=O)[C@H](Cc2c[nH]c3ccccc23)NC(=O)[C@@H](N)CCCCNC(=O)C[C@@H](C(=O)O)NC(=O)[C@H](Cc2c[nH]c3ccccc23)NC(=O)[C@H](C)NC(=O)[C@H](CS)NC1=O [compound 168] (HELM PEPTIDE1{K.W.F.L.I.C.A.W.D}$PEPTIDE1,PEPTIDE1,1:R3-9:R3$$$V2.0)	99.1%
< 7.5 µM	1 to 10 µM	0.7	CC[C@H](C)[C@@H]1NC(=O)[C@H](CC(C)C)NC(=O)[C@H](Cc2ccccc2)NC(=O)[C@H](Cc2c[nH]c3ccccc23)NC(=O)[C@@H](NC(C)=O)CCCCNC(=O)C[C@@H](C(=O)O)NC(=O)[C@H](Cc2c[nH]c3ccccc23)NC(=O)[C@H](C)NC(=O)[C@H](CS)NC1=O [compound 169] (HELM PEPTIDE1{[ac].K.W.F.L.I.C.A.W.D}$PEPTIDE1,PEPTIDE1,2:R3-10:R3$$$V2.0)	93.5%
15 to 22.5 µM	1 to 10 µM	0.7	CC[C@H](C)[C@@H]1NC(=O)[C@H](CC(C)C)NC(=O)[C@H](Cc2ccccc2)NC(=O)[C@H](Cc2c[nH]c3ccccc23)NC(=O)[C@H](CCSC)NC(=O)[C@@H](N)CCCCNC(=O)C[C@@H](C(=O)O)NC(=O)[C@H](Cc2c[nH]c3ccccc23)NC(=O)[C@H](Cc2ccccc2)NC(=O)[C@H](CS)NC1=O [compound 170] (HELM PEPTIDE1{K.M.W.F.L.I.C.F.W.D}$PEPTIDE1,PEPTIDE1,1:R3-10:R3$$$V2.0)	107%
< 7.5 µM	1 to 10 µM	0.7	CC[C@H](C)[C@@H]1NC(=O)[C@H](CC(C)C)NC(=O)[C@H](Cc2ccccc2)NC(=O)[C@H](Cc2c[nH]c3ccccc23)NC(=O)[C@H](CCSC)NC(=O)[C@@H](N)CCCCNC(=O)C[C@@H](C(=O)O)NC(=O)[C@H](Cc2c[nH]c3ccccc23)NC(=O)[C@H](Cc2ccccc2)NC(=O)[C@H](CO)NC1=O [compound 171] (HELM PEPTIDE1{K.M.W.F.L.I.S.F.W.D}$PEPTIDE1,PEPTIDE1,1:R3-10:R3$$$V2.0)	79.6%
